In patent US4778797A, “Organo-silicon compounds, process for the manufacture of same, and anti-tumor agent comprising the compound” (Sanwa Kagaku Kenkyusho Co., Ltd., priority 1984, dated 1988):
≈ marks a conversion by molar mass, not a printed value. Like-named read-outs stand apart in the source and are kept apart here.

How the values were obtained:
[1] = tested on: CrJ/CDI female mice; test: Acute toxicity; format: in vivo; conditions: oral gavage
Method: (§1) Each of testing compounds suspended in 0.1% P-1570 was orally and forcedly dosed through a gastric probe to CrJ/CDI female mice (21 to 22 g, age of about 5 weeks). An identification number was given to each mouse, and a weighing and observation on general behavior were carried out just before the dosage and each day after the same. Each of died mice was subjected without delay to an autopsy to check the same, more particularly in detail on enterona. All of living mice were killed at 21st day from the dosage to carry out an autopsy for checking the same, more particularly on entrails.
(§2) An LD50 was calculated in accordance with the Leed and Munch's method.
(§3) A similar test was carried out on each controls of 1-[2-[(2-trimethylsilylethyl)thio]ethylcarbamoyl]-5-fluorouracil and 1-hexylcarbamoyl-5-fluorouracil (HCFU) which is one of exemplary anti-tumor agents.

[2] = Acute toxicity; format: in vivo, CrJ/CDI female mice; conditions: mouse, in vivo; oral gavage, suspended in 0.1% P-1570, female mice, 21 days observation
Method: as §1, §2, §3

[3] = tested on: KB cells; test: Suppression of KB cell proliferation in vitro; format: cell-based; conditions: Homo sapiens, 72 h, 3 days exposure, Trypan Blue dye-exclusion, read-out: KB IC50 (50% inhibition density to tumor cell proliferation)
Method: In a cultivation device (5% CO2, 37° C.), KB cells (1×10^4 cells) were cultivated for 24 hours in a culture tube with 1 ml of Eagle culture medium added 10% ox serum, the used culture medium was thrown away to change with a fresh culture medium (0.9 ml), and then 0.1 ml of a similar culture fluid containing each testing compound prepared by the process as described in the Examples was added to cultivate the same for further 3 days. Thereafter, living cells were dyed with Tripan Blue and measured same through a dye-exclusion method.
A control was treated in a manner similar to the above, except that a culture fluid containing no compound of the invention was added.
50% inhibition density (IC50) to the tumor cell proliferation was decided through the tests between the testing group and the control group to obtain results as shown in following Table 1.

[4] = tested on: L-1210 leukemia; test: Anti-tumor action to L-1210 leukemia; format: in vivo, BDF1 female mice; conditions: Mus musculus, L1210, oral; for ILS at 250 mg/kg/day: 250 mg/kg/day × 3 (1st, 5th, 9th day); for ILS at 500 mg/kg/day: 500 mg/kg/day × 3 (1st, 5th, 9th day)
Method: L-1210 leukemia cell (1×10^5 cells) was transplanted in a abdominal cavity of BDF1 female mice (20-21 g, age of about 5 weeks), and each of testing compounds was orally dosed in 250 mg/kg or 500 mg/kg at 1st, 5th and 9th day after the transplantation to check days of life of the mice. [formula]

[5] = tested on: B-16 melanoma; test: Anti-tumor action to B-16 melanoma; format: in vivo, BDF1 female mice; conditions: Mus musculus, B16, 504 h, oral, tumor weight at 21st day, read-out: B-16 melanoma Inhibition ratio
Description: B-16 melanoma (1×10^5 cells) was transplanted under skin of BDF1 female mice (age of about 5 weeks), and each of testing compounds was orally dosed at 1st, 5th and 9th day after the transplantation. At 21st day after the transplantation, the mice were killed to measure a weight of the cancerous tumor and to finally determine an inhibition ratio.

[6] = tested on: MM-46 adenocarcinoma; test: Anti-tumor action to MM-46 adenocarcinoma; format: in vivo, C3H/He female mice; conditions: oral, 250 mg/kg/day × 3 (1st, 5th, 9th day); days to death, testing vs control group
Description: MM-46 adenocarcinoma (1×10^6 cells) was transplanted under skin of C3H/He female mice (age of about 5 weeks), and each of testing compounds was orally dosed at 1st, 5th and 9th day after the transplantation to check days of life on the mice.
T: days to death on testing group, and
C: days to death on control group.

[7] = tested on: Lewis lung carcinoma; test: Anti-tumor action to Lewis lung carcinoma (primary tumor weight and metastasis); format: in vivo, BDF1 mice; conditions: Mus musculus, po, 504 h
Description: Lewis lung carcinoma (1×10^5 cells) was transplanted under skin of right ear of BDF1 mice (age of about 5 weeks), and each of testing compounds was orally dosed 10 times from 1st to 10th day after the transplantation. At 21st day after the transplantation, the mice were killed to measure a weight of the primarly tumor and to extract a lung. The lung was fixed in a conventional manner to count a number of metastasis on cancerous cells with use of a stereomicroscope having a low magnification. An anti-tumor action of each compound was expressed with an inhibition in weight of the primarly tumor and an inhibition of the metastasis.

[8] = tested on: Colon-38 carcinoma; test: Anti-tumor action to Colon-38 carcinoma; format: in vivo, BDF1 mice; conditions: Mus musculus, 672 h, oral, tumor weight at 28th day, read-out: colon-38 Inhibition ratio
Method: 0.02 ml of 10(W/V)% cell suspension prepared from a solid cancer cell (Colon-38 carcinoma) were transplanted under skin of BDF1 mice (20-21 g, age of about 5 weeks), and each of testing compounds was orally dosed to the mice at 1st, 5th and 9th day after the transplantation. A major and minor axes of the cancerous tumor were measured at 11th, 14th, 21st, 25th and 28th day after the transplantation to calcurate volume of the tumor in accordance with the following.
At 28th day from the transplantation, the mice were killed and each of the cancerous tumors was extracted to measure its weight and to determine an inhibitation ratio in comparison with a non-treated control group.

C[Si](C)(C)CCSCCNC(=O)n1cc(F)c(=O)[nH]c1=O [1-[2-[(2-trimethylsilylethyl)thio]ethylcarbamoyl]-5-fluorouracil, reference compound]
autopsy findings (ulcer and laxative feces) ([1]; female mice): an ulcer and laxative feces
spasm (general behavior) ([1]; female mice): a spasm was observed in some mice
LD50 at 504 h [2]: 1100 mg/kg

C[Si](C)(C)CCCSCCNC(=O)n1cc(F)c(=O)[nH]c1=O [Example 1, 5-Fluoro-3,4-dihydro-2,4-dioxo-N-[2-[[3-(trimethylsilyl)propyl]thio]ethyl]-1(2H)-pyrimidinecarboxamide]
IC50 [3]: 20 µg/mL (≈ 57.6 µM)
ILS at 250 mg/kg/day ([4]; read-out: L-1210 ILS): 28%
ILS at 250 mg/kg/day ([4]; read-out: L-1210 Judgement): 25 to 50%
ILS at 500 mg/kg/day ([4]; read-out: L-1210 ILS): 98%
ILS at 500 mg/kg/day ([4]; read-out: L-1210 Judgement): 50 to 100%
inhibition in vivo at 125 mg/kg/day ([5]; 125 mg/kg/day × 3): 25.8%
inhibition in vivo at 250 mg/kg/day ([5]; 250 mg/kg/day × 3): 73.8%
MM-46 adenocarcinoma T/C × 100 [6]: 181%
LD50 at 504 h [2]: 1580 mg/kg
inhibition in vivo at 13 mg/kg/day ([7]; 13 mg/kg/day × 10 + Amputation, 21st day, read-out: Inhibition Ratio weight LLC): 33.2%
inhibition in vivo at 13 mg/kg/day ([7]; 13 mg/kg/day × 10 + Amputation, lung, 21st day, printed in parentheses, read-out: Inhibition Ratio metastasis): 26.6%
inhibition in vivo at 13 mg/kg/day ([7]; 13 mg/kg/day × 10, 21st day, read-out: Inhibition Ratio weight LLC): 0%
inhibition in vivo at 13 mg/kg/day ([7]; 13 mg/kg/day × 10, lung, 21st day, read-out: Inhibition Ratio metastasis): 50.9%
inhibition in vivo at 26 mg/kg/day ([7]; 26 mg/kg/day × 10 + Amputation, 21st day, read-out: Inhibition Ratio weight LLC): 59.8%
inhibition in vivo at 26 mg/kg/day ([7]; 26 mg/kg/day × 10 + Amputation, lung, 21st day, printed in parentheses, read-out: Inhibition Ratio metastasis): > 63%
inhibition in vivo at 26 mg/kg/day ([7]; 26 mg/kg/day × 10, 21st day, read-out: Inhibition Ratio weight LLC): 51.1%
inhibition in vivo at 26 mg/kg/day ([7]; 26 mg/kg/day × 10, lung, 21st day, read-out: Inhibition Ratio metastasis): 79.2%
inhibition in vivo at 52 mg/kg/day ([7]; 52 mg/kg/day × 10, 21st day, read-out: Inhibition Ratio weight LLC): 31.1%
inhibition in vivo at 52 mg/kg/day ([7]; 52 mg/kg/day × 10, lung, 21st day, read-out: Inhibition Ratio metastasis): 95.7%
inhibition in vivo at 278 mg/kg/day ([8]; 278 mg/kg/day × 3): 95.2%

C[Si](C)(CCSCCNC(=O)n1cc(F)c(=O)[nH]c1=O)c1ccccc1 [Example 3, N-[2-[[2-(Dimethylphenylsilyl)ethyl]thio]ethyl]-5-fluoro-3,4-dihydro-2,4-dioxo-1(2H)-pyrimidinecarboxamide]
IC50 [3]: 12 µg/mL (≈ 30.3 µM)
ILS at 250 mg/kg/day ([4]; read-out: L-1210 ILS): 38%
ILS at 250 mg/kg/day ([4]; read-out: L-1210 Judgement): 25 to 50%
ILS at 500 mg/kg/day ([4]; read-out: L-1210 ILS): 82%
ILS at 500 mg/kg/day ([4]; read-out: L-1210 Judgement): 50 to 100%
inhibition in vivo at 300 mg/kg/day ([5]; 300 mg/kg/day × 3): 62%
MM-46 adenocarcinoma T/C × 100 [6]: 205%
LD50 at 504 h [2]: 1500 mg/kg
inhibition in vivo at 29.5 mg/kg/day ([7]; 29.5 mg/kg/day × 10, 21st day, read-out: Inhibition Ratio weight LLC): 20.7%
inhibition in vivo at 29.5 mg/kg/day ([7]; 29.5 mg/kg/day × 10, lung, 21st day, read-out: Inhibition Ratio metastasis): 57.5%
inhibition in vivo at 59 mg/kg/day ([7]; 59 mg/kg/day × 10, 21st day, read-out: Inhibition Ratio weight LLC): 0%
inhibition in vivo at 59 mg/kg/day ([7]; 59 mg/kg/day × 10, lung, 21st day, read-out: Inhibition Ratio metastasis): 95.1%
inhibition in vivo at 315 mg/kg/day ([8]; 315 mg/kg/day × 3): 82.1%

CCCCCCNC(=O)n1cc(F)c(=O)[nH]c1=O [HCFU, 1-hexylcarbamoyl-5-fluorouracil, reference compound]
LD50 ([1]; suspended in 0.1% P-1570, female mice, 21 days observation): 1250 mg/kg
